Experimental data: PMC5666694 (Antiviral research, 2017)
Where a name gives a salt, the structure may show the parent alone.

Tested on: HIV/EBOV pseudovirion
Type: cell-based, Ebolavirus Zaire

Structure (SMILES) | Antiviral effect by time of compound addition
Cc1cn([C@H]2C[C@H](N=[N+]=[N-])[C@@H](CO)O2)c(=O)[nH]c1=O [AZT, Azidothymidine] | still effective even when it was introduced at a very late time points (>8 h)
CN1[C@@H]2CC[C@H]1C[C@@H](OC(c1ccccc1)c1ccccc1)C2 [benztropine, Benztropine mesylate] | started to lose its inhibitory effect when it was added at 2 h post entry and beyond
